Data: ChEMBL document CHEMBL5465560, “Selectivity Literature for EUbOPEN Chemogenomic Library” (2024)
Each block holds one molecule with its values, some of them ahead of it.

Columns and labels:
[1] = target: Interferon-induced, double-stranded RNA-activated protein kinase (Homo sapiens) (UniProt P19525); assay: Selectivity interaction (KinomeScan (DiscoverX)) EUB0000699a EIF2AK2; settings: at 10 µM
[2] = target: RAC-beta serine/threonine-protein kinase (Homo sapiens) (UniProt P31751); assay: Selectivity interaction (Kinase panel (literature)) EUB0001199aCl AKT2; settings: at 1 µM
Chain of RAC-beta serine/threonine-protein kinase (Homo sapiens) (P31751 whole entry): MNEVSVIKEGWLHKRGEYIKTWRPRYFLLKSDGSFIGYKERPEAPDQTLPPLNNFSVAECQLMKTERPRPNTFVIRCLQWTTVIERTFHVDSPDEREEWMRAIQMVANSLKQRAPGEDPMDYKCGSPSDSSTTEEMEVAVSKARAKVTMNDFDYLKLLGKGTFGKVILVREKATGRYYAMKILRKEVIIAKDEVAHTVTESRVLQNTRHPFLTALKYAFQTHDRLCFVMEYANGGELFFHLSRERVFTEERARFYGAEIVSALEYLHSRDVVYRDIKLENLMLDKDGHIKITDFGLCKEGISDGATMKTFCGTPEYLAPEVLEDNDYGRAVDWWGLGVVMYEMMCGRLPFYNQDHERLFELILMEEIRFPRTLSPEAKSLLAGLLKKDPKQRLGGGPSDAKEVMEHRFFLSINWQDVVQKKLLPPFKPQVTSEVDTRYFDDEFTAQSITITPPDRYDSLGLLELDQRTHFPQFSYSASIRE

[3] = target: Tyrosine-protein kinase JAK1 (Homo sapiens, UniProt P23458); assay: Selectivity interaction (KinomeScan (DiscoverX)) EUB0001079a JAK1; settings: at 1 µM
[4] = target: Serine/threonine-protein kinase OSR1 (Homo sapiens) (UniProt O95747); assay: Selectivity interaction (KinomeScan (DiscoverX)) EUB0001079a OXSR1; settings: at 1 µM
[5] = target: T1, Serine/threonine-protein kinase RIO1 (Homo sapiens) (UniProt Q9BRS2); assay: Selectivity interaction (KinomeScan (DiscoverX)) EUB0001079a RIOK1; settings: at 1 µM
T1 sequence (whole entry): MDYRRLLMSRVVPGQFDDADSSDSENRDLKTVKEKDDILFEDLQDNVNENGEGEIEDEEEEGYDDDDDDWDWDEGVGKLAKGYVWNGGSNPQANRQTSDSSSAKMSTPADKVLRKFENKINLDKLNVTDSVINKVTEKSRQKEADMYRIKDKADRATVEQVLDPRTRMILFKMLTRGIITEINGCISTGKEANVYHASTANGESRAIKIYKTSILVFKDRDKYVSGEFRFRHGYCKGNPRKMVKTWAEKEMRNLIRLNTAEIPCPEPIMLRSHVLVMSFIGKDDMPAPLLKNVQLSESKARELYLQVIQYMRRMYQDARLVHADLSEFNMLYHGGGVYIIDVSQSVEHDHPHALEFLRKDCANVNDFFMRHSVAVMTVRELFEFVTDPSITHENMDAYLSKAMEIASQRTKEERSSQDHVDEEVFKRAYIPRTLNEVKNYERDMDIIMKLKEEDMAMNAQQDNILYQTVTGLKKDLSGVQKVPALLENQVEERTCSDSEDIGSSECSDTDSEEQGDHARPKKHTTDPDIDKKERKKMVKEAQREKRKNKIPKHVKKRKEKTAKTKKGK

[6] = target: SRSF protein kinase 2 (Homo sapiens) (UniProt P78362); assay: Selectivity interaction (KinomeScan (DiscoverX)) EUB0001079a SRPK2; settings: at 1 µM
Chain of SRSF protein kinase 2 (Homo sapiens) (P78362 whole entry, looked up): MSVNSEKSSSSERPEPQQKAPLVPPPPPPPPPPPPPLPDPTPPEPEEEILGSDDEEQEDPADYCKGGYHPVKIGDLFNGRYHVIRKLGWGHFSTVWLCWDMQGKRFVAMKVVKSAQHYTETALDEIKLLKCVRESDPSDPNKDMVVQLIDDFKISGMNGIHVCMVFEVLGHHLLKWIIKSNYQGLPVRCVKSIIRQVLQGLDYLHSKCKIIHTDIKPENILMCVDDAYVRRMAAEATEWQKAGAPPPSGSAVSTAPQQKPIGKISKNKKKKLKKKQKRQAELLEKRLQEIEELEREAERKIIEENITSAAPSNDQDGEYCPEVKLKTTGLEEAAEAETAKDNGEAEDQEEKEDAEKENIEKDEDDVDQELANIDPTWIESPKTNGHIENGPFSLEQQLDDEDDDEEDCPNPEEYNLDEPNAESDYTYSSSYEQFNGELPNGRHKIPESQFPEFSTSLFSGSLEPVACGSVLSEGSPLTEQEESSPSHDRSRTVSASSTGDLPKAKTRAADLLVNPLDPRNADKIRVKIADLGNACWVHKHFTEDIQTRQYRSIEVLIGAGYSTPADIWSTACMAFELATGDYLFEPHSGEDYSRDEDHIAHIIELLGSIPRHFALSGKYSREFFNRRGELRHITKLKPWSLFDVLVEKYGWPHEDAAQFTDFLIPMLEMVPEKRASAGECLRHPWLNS

[7] = target: T2, Platelet-derived growth factor receptor alpha (Homo sapiens, UniProt P16234); assay: (§1) Selectivity interaction (SelectScreen profiling (Invitrogen)) EUB0000607a PDGFRA; settings: at 2 µM
T2 sequence (P16234 whole entry): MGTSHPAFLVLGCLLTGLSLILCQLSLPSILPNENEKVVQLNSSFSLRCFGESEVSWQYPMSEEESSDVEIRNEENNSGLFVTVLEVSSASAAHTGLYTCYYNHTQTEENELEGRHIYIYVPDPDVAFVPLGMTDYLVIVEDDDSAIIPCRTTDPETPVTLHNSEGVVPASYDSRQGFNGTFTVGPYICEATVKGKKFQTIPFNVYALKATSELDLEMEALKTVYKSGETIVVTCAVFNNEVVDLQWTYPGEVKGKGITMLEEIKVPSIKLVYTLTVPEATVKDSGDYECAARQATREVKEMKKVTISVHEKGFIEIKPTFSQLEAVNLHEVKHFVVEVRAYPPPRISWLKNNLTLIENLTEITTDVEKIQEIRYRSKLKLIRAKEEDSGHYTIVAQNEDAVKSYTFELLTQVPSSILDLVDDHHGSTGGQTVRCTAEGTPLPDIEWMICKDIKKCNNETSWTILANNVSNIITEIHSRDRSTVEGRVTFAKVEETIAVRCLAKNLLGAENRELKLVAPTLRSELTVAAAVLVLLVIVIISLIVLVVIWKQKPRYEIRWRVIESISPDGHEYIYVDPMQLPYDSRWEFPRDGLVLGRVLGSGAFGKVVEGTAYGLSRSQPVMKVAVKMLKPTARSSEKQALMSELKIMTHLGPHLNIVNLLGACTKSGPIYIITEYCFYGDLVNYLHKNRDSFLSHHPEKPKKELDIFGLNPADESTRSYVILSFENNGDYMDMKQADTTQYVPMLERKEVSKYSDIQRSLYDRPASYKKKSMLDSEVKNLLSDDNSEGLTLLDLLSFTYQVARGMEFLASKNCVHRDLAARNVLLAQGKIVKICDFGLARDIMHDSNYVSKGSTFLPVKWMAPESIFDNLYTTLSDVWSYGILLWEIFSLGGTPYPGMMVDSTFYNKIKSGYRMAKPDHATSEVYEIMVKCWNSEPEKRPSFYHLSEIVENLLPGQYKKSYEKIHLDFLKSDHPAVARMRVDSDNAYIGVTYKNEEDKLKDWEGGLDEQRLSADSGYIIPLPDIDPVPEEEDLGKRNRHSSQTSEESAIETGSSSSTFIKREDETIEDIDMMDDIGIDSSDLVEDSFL

[8] = test system: Platelet-derived growth factor receptor alpha (Homo sapiens), P16234 [D842V]; assay: as §1; settings: at 2 µM
Chain of Platelet-derived growth factor receptor alpha (Homo sapiens), P16234 [D842V] (P16234 whole entry D842V): as the sequence (P16234 whole entry) above, with D842V counted along it

[9] = test system: Platelet-derived growth factor receptor alpha (Homo sapiens), P16234 [T674I]; assay: as §1; settings: at 2 µM
Chain of Platelet-derived growth factor receptor alpha (Homo sapiens), P16234 [T674I] (P16234 whole entry T674I): as the sequence (P16234 whole entry) above, with T674I counted along it

[10] = test system: Platelet-derived growth factor receptor alpha (Homo sapiens), P16234 [V561D]; assay: as §1; settings: at 2 µM
Chain of Platelet-derived growth factor receptor alpha (Homo sapiens), P16234 [V561D] (P16234 whole entry V561D): as the sequence (P16234 whole entry) above, with V561D counted along it

[11] = target: Serine/threonine-protein kinase PAK 6 (Homo sapiens) (UniProt Q9NQU5); assay: Selectivity interaction (SelectScreen profiling (Invitrogen)) EUB0000607a PAK6; settings: at 2 µM
[12] = target: Ribosomal protein S6 kinase alpha-6 (Homo sapiens, UniProt Q9UK32); assay: Selectivity interaction (KinomeScan (DiscoverX)) EUB0000045b RPS6KA6
Chain of Ribosomal protein S6 kinase alpha-6 (Q9UK32 whole entry): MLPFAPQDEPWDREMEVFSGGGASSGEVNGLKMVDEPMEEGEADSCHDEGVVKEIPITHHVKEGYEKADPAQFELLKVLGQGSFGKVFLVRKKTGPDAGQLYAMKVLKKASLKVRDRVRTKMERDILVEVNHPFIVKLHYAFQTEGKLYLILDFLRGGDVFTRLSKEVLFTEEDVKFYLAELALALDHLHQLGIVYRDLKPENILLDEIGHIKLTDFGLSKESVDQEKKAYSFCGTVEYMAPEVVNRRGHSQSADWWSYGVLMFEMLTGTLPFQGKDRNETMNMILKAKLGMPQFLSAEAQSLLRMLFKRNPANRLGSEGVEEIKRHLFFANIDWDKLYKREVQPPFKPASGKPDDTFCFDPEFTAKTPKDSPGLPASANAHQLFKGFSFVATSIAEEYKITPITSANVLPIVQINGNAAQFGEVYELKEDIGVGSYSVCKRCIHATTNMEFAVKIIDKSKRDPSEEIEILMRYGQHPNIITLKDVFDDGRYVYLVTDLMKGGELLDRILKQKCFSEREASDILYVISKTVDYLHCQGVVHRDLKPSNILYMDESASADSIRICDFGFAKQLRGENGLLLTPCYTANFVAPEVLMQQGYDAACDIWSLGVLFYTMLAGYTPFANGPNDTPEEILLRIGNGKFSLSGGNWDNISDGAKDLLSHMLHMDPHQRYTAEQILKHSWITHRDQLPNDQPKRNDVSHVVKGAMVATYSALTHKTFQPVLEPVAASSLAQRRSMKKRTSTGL

[13] = target: Serine/threonine-protein kinase PRP4 homolog (Homo sapiens) (UniProt Q13523); assay: Selectivity interaction (ActivX KiNativ screen (kinase selectivity in THP-1 cell lysates)) EUB0000639a PRPF4; format: subcellular; settings: lysate, at 5 µM
[14] = target: Ribosomal protein S6 kinase alpha-1 (Homo sapiens, UniProt Q15418); assay: Selectivity interaction (ActivX KiNativ screen (kinase selectivity in THP-1 cell lysates)) EUB0000639a RPS6KA1; format: subcellular; settings: lysate, at 1 µM
[15] = target: Tyrosine-protein kinase Fyn (Homo sapiens) (UniProt P06241); assay: Selectivity interaction (Kinase panel (Invitrogen)) EUB0000639a FYN; settings: at 200 nM
[16] = target: T2, Platelet-derived growth factor receptor alpha; assay: Selectivity interaction (Kinase panel (Enzyme activity assay)) EUB0000612a PDGFRA
[17] = target: Activin receptor type-2B (Homo sapiens) (UniProt Q13705); assay: Selectivity interaction (ProQinase) EUB0000171b ACVR2B
Chain of Activin receptor type-2B (Homo sapiens) (Q13705 whole entry): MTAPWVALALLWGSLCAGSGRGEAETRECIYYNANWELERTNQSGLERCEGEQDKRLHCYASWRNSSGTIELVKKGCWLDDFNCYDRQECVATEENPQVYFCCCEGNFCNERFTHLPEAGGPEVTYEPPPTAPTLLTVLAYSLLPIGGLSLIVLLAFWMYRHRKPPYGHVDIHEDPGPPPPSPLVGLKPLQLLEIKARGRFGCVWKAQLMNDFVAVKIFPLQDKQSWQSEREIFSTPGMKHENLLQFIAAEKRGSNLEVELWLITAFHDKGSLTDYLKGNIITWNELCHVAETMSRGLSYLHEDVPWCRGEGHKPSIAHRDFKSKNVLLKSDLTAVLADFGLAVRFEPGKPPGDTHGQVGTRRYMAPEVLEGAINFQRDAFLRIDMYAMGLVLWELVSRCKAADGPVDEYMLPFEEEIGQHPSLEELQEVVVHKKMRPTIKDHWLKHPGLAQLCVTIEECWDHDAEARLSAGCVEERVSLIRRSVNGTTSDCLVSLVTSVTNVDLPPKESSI

[18] = target: Phosphatidylinositol 4-kinase type 2-alpha (Homo sapiens) (UniProt Q9BTU6); assay: Selectivity interaction (ProQinase) EUB0000171b PI4K2A
Chain of Phosphatidylinositol 4-kinase type 2-alpha (Homo sapiens) (Q9BTU6 whole entry): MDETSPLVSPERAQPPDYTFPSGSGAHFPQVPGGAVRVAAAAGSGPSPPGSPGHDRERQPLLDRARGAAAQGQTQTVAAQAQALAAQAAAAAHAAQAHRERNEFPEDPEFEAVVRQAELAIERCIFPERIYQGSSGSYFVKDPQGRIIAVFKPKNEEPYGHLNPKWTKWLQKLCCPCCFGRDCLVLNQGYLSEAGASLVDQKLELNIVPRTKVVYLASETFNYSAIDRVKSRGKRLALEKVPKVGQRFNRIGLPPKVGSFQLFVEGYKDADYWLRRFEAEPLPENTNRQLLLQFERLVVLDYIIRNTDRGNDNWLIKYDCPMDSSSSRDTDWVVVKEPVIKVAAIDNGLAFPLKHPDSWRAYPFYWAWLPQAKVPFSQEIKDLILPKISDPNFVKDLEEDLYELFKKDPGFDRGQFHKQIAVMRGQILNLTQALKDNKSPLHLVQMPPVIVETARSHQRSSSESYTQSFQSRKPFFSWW

[19] = test system: Epidermal growth factor receptor (Homo sapiens), P00533 [UNDEFINED MUTATION]; assay: Selectivity interaction (KinomeScan (DiscoverX)) EUB0001049a EGFR; settings: at 1 µM
[20] = target: Sodium-dependent noradrenaline transporter (Homo sapiens, UniProt P23975); assay: Selectivity interaction (Panel of kinases, GPCRs, ion channels and transporters (enzymatic assay)) EUB0000223bCl SLC6A2
Chain of Sodium-dependent noradrenaline transporter (P23975 whole entry): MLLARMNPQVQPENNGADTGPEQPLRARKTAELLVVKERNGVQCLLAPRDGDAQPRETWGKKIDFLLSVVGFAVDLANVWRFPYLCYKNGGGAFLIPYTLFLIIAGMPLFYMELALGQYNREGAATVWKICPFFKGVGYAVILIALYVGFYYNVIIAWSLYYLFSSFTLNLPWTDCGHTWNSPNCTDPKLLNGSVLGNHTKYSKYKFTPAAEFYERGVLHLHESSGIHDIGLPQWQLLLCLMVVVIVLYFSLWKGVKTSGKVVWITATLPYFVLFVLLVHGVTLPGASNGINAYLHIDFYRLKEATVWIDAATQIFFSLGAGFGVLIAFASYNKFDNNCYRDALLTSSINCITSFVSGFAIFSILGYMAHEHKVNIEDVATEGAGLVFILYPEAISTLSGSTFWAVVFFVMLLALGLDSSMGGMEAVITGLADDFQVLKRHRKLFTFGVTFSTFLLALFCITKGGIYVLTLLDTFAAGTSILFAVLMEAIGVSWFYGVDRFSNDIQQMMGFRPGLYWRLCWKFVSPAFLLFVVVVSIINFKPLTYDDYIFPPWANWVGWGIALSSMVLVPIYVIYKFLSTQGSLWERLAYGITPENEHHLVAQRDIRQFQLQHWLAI

% of control [1]: 24%
SMILES: CCN(CC)CCCCNc1ncc2cc(-c3cc(OC)cc(OC)c3)c(NC(=O)NC(C)(C)C)nc2n1

% of inhibition [2]: 7%
SMILES: CN1Cc2nccc(-c3cn(C)nc3-c3ccc(F)cc3)c2C1=O

SMILES: Nc1cnc(N2CCc3cc(S(=O)(=O)Nc4c(F)cc(Cl)cc4F)cc(N4CCCC4=O)c32)nc1 [TP-020n]
% of control [3]: 100%
% of control [4]: 75%
% of control [5]: 100%
% of control [6]: 100%

SMILES: CNC(=O)Nc1ccc(-c2nc(N3CC4CCC(C3)O4)c3cnn(C4CCC5(CC4)OCCO5)c3n2)cc1
% of inhibition [7]: 0%
% of inhibition [8]: 4%
% of inhibition [9]: 12%
% of inhibition [10]: 3%
% of inhibition [11]: 9%

SMILES: C=CC(=O)Nc1cc(-n2c(=O)ccc3cnc4ccc(-c5ccc(NS(C)(=O)=O)cc5)cc4c32)ccc1C
% of control ([12]; at 1 µM): 100%
% of control ([12]; at 10 µM): 56%

% of inhibition [13]: 88.3%
% of inhibition [14]: -3.5%
% of inhibition [15]: 16.4%
SMILES: CC[C@@H]1[C@H](F)C(=O)N[C@@H]1COc1nccc2cc(C(N)=O)c(OC)cc12 [ZIMLOVISERTIB]

IC50 [16]: > 10 µM
SMILES: CCc1cccc(CC)c1NC(=O)c1nn(C)c2c1CCc1cnc(Nc3ccc(C(=O)NC4CCN(C)CC4)cc3OC(F)(F)F)nc1-2

% of control ([17]; at 1 µM): 88%
% of control ([17]; at 5 µM): 68%
% of control ([18]; at 1 µM): 117%
% of control ([18]; at 5 µM): 133%
SMILES: C=CC(=O)Nc1cccc(C(=O)Nc2ccc(Nc3cc(-c4[nH]c(SC)nc4C)ccn3)cc2)c1

SMILES: COc1cc(Nc2nc(C)cc(-c3cnn4nc(OC)ccc34)n2)cc(C(F)(F)F)c1
% of control [19]: 100%

SMILES: COc1cc(C(=O)N2CC[C@@H](O)[C@@H](N)C2)cc2nc(-c3cc4ccccc4n3CC3CC3)n(C)c12
pXC50 [20]: 4.7 M
